From patent publication US20230113037A1 (Bayer Aktiengesellschaft, priority 2019, published 2023)
Read-outs that look alike come from different tables or passages of the source.

How the values were obtained:
AHR [1] = target: T1, AHR (Homo sapiens, UniProt P35869); assay: In vitro assay 1: antagonism in human cell line (AHR transactivation, firefly luciferase reporter, kynurenic acid prestimulated); format: cell-based; conditions: AHR Antagonism Human IC50 [M]
T1 construct: U87 MG glioblastoma cells (ATCC #HTB-14) endogenously expressing AHR; endogenous in cells; host or cells: U87 MG glioblastoma cells (ATCC #HTB-14)
T1 sequence (P35869 11-848): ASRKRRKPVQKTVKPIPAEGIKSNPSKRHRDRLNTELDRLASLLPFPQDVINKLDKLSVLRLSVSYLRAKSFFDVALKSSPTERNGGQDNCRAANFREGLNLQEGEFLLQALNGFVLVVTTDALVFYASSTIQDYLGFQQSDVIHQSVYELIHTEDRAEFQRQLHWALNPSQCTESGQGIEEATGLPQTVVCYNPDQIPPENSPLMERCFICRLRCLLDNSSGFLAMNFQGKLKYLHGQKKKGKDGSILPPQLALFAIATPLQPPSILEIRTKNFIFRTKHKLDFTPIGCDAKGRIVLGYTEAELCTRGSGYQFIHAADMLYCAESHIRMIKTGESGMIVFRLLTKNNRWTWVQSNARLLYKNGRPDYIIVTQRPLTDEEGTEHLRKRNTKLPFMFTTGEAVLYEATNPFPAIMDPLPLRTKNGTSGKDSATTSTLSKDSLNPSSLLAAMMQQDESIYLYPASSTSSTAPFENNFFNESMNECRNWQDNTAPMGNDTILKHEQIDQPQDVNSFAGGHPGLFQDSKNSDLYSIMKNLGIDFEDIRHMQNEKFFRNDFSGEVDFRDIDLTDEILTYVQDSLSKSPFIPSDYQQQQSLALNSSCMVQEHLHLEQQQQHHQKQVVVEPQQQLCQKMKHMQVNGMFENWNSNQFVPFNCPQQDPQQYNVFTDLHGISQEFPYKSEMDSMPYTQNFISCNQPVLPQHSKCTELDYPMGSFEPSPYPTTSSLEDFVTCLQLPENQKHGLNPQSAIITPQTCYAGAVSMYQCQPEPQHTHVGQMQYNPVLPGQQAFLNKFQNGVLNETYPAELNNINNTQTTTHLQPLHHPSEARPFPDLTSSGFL
In short: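 Antagonism measured as loss of kynurenic acid-driven firefly luciferase from DRE reporter in stably transfected U87 MG cells; constitutive Renilla signal monitors cytotoxicity. Positive/negative control normalization, staurosporine 5 μM with 150 μM kynurenic acid as inhibition control; replicates given as mean or median.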

AHR [2] = target: T2, AHR (Mus musculus, UniProt P30561); assay: In vitro assay 3: antagonism in mouse cell line (AHR transactivation, firefly luciferase reporter, kynurenic acid prestimulated); format: cell-based
T2 sequence (P30561 1-848 P471L/N533S/M589L): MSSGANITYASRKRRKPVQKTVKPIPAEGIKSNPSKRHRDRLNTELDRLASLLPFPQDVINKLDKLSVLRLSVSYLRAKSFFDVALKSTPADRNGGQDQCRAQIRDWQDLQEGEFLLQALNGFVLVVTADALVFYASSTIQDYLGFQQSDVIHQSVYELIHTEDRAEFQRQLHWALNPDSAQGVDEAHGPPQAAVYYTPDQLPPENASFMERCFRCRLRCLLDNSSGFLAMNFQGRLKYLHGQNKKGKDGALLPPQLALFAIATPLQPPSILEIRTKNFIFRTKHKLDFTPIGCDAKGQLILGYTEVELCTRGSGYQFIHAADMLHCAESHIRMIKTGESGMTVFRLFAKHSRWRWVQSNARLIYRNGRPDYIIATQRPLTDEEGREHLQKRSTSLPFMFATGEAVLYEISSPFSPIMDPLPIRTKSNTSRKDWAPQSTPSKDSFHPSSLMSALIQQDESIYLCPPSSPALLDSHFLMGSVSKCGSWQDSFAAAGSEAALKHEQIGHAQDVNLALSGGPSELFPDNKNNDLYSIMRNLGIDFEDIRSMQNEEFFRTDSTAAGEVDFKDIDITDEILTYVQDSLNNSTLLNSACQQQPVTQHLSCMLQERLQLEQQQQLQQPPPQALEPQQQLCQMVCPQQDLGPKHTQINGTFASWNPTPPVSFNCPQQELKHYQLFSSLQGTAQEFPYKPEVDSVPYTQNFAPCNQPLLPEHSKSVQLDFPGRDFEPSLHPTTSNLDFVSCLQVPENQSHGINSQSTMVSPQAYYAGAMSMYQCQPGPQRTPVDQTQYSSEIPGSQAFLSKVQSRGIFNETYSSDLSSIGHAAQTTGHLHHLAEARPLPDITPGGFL
In short: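 Kynurenic acid-prestimulated mouse reporter cells; stable AHR-inducible firefly luc construct with DRE sites in promoter. No-agonist wells = positive inhibition ctrl. Luminescence normalized to pos/neg ctrls; n>1 reported as mean or median.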

[3] = mouse Hepa 1c1c7 cells, 200 μM kynurenic acid, 20 hours, read-out: AHR Antagonism Mouse IC50

Row | Compound | IC50 (AHR [1]) | IC50 (AHR [2]; [3]) | IC50 (AHR [2]; read-out: AHR Antagonism Mouse IC50, mouse Hepa 1c1c7 cells, 200 μM kynurenic acid, 20 hours)
1 | CCCNC(=O)[C@@H](C)Nc1nc2c(Br)cccc2c2nc(-c3ccc(Cl)cc3OC(F)F)nn12 [Example 692, N^2-{7-bromo-2-[4-chloro-2-(difluoromethoxy)phenyl][1,2,4]triazolo[1,5-c]quinazolin-5-yl}-N-propyl-D-alaninamide] | 6.79e-10 M | 0.308 nM | –
2 | CC[C@H](Nc1nc2c(Br)cccc2c2nc(-c3cnn(C)c3)nn12)C(N)=O [Example 694, (2S)-2-{[7-bromo-2-(1-methyl-1H-pyrazol-4-yl)[1,2,4]triazolo[1,5-c]quinazolin-5-yl]amino}butanamide] | 1.55e-07 M | 719 nM | –
3 | O=C1NCCCC[C@@H]1Nc1nc2ccccc2c2nc(-c3cnccn3)nn12 [Example 695, (3S)-3-{[2-(pyrazin-2-yl)[1,2,4]triazolo[1,5-c]quinazolin-5-yl]amino}azepan-2-one] | 2.96e-06 M | 2190 nM | –
4 | CC[C@@H](Nc1nc2c(Br)cccc2c2nc(-c3cnn(C)c3)nn12)C(N)=O [Example 696, (2R)-2-{[7-bromo-2-(1-methyl-1H-pyrazol-4-yl)[1,2,4]triazolo[1,5-c]quinazolin-5-yl]amino}butanamide] | 3.23e-09 M | 8.97 nM | –
5 | CC[C@H](Nc1nc2c(Br)cccc2c2nc(-c3ccc(Cl)cc3OC(F)F)nn12)C(N)=O [Example 698, (2S)-2-({7-bromo-2-[4-chloro-2-(difluoromethoxy)phenyl][1,2,4]triazolo[1,5-c]quinazolin-5-yl}amino)butanamide] | 4.68e-08 M | – | 7.35 nM
6 | CS(=O)(=O)c1ccc(-c2nc3c4cccc(Br)c4nc(N[C@@H]4CNCCNC4=O)n3n2)cc1 [Example 715, (6R)-6-({7-bromo-2-[4-(methanesulfonyl)phenyl][1,2,4]triazolo[1,5-c]quinazolin-5-yl}amino)-1,4-diazepan-5-one] | 1.13e-08 M | 14.8 nM | –
7 | N#Cc1ccc(-c2nc3c4cccc(Br)c4nc(N[C@@H]4CNCCNC4=O)n3n2)cc1 [Example 717, 4-(7-bromo-5-{[(6R)-5-oxo-1,4-diazepan-6-yl]amino}[1,2,4]triazolo[1,5-c]quinazolin-2-yl)benzonitrile] | 7.05e-10 M | 0.95 nM | –
8 | N#Cc1ccc(-c2nc3c4ccccc4nc(N[C@@H]4CNCCNC4=O)n3n2)cc1 [Example 718, 4-(5-{[(6R)-5-oxo-1,4-diazepan-6-yl]amino}[1,2,4]triazolo[1,5-c]quinazolin-2-yl)benzonitrile] | 1.93e-08 M | 8.12 nM | –
9 | O=C1NCCNC[C@H]1Nc1nc2ccccc2c2nc(-c3cc(F)ccc3OC(F)(F)F)nn12 [Example 719, (6R)-6-({2-[5-fluoro-2-(trifluoromethoxy)phenyl][1,2,4]triazolo[1,5-c]quinazolin-5-yl}amino)-1,4-diazepan-5-one] | 9.56e-06 M | 239 nM | –
10 | COc1ccc(-c2nc3c4ccccc4nc(N[C@@H]4CCCCNC4=O)n3n2)cc1C(F)(F)F [Example 722, (3R)-3-({2-[4-methoxy-3-(trifluoromethyl)phenyl][1,2,4]triazolo[1,5-c]quinazolin-5-yl}amino)azepan-2-one] | 7.2e-09 M | 6.63 nM | –
11 | Cn1cc(-c2nc3c4cccc(C(F)(F)F)c4nc(N[C@@H]4COCCNC4=O)n3n2)cn1 [Example 732, (6R)-6-{[2-(1-methyl-1H-pyrazol-4-yl)-7-(trifluoromethyl)[1,2,4]triazolo[1,5-c]quinazolin-5-yl]amino}-1,4-oxazepan-5-one] | 1.32e-09 M | 6.14 nM | –
12 | CN1CC[C@@H](Nc2nc3c(C(F)(F)F)cccc3c3nc(-c4cnn(C)c4)nn23)C1=O [Example 733, (3R)-1-methyl-3-{[2-(1-methyl-1H-pyrazol-4-yl)-7-(trifluoromethyl)[1,2,4]triazolo[1,5-c]quinazolin-5-yl]amino}pyrrolidin-2-one] | 2.58e-07 M | 6640 nM | –
13 | Cc1c(-c2nc3c4cccc(C(F)(F)F)c4nc(N[C@@H]4CCCCNC4=O)n3n2)cnn1C [Example 734, (3R)-3-{[2-(1,5-dimethyl-1H-pyrazol-4-yl)-7-(trifluoromethyl)[1,2,4]triazolo[1,5-c]quinazolin-5-yl]amino}azepan-2-one] | 3.94e-09 M | 8.92 nM | –
14 | Cn1ccc(-c2nc3c4cccc(C(F)(F)F)c4nc(N[C@@H]4CCCCNC4=O)n3n2)n1 [Example 735, (3R)-3-{[2-(1-methyl-1H-pyrazol-3-yl)-7-(trifluoromethyl)[1,2,4]triazolo[1,5-c]quinazolin-5-yl]amino}azepan-2-one] | 7.1e-09 M | 9.2 nM | –

The remaining molecules from weak to strong by IC50 (AHR [1]), led by results:

Row | IC50 (AHR [1]) | IC50 (AHR [2]; [3]) | Compound | IC50 (AHR [2]; read-out: AHR Antagonism Mouse IC50, mouse Hepa 1c1c7 cells, 200 μM kynurenic acid, 20 hours)
15 | 5.61e-07 M | 240 nM | CC[C@@H](Nc1nc2ccccc2c2nc(-c3cnccn3)nn12)C(N)=O [Example 691, (2R)-2-{[2-(pyrazin-2-yl)[1,2,4]triazolo[1,5-c]quinazolin-5-yl]amino}butanamide] | –
16 | 1.64e-07 M | 134 nM | CS(=O)(=O)c1ccc(-c2nc3c4ccccc4nc(N[C@@H]4CNCCNC4=O)n3n2)cc1 [Example 714, (6R)-6-({2-[4-(methanesulfonyl)phenyl][1,2,4]triazolo[1,5-c]quinazolin-5-yl}amino)-1,4-diazepan-5-one] | –
17 | 1.45e-07 M | 63.8 nM | O=C1NCCNC[C@H]1Nc1nc2ccccc2c2nc(-c3ccccc3OC(F)(F)F)nn12 [Example 720, (6R)-6-({2-[2-(trifluoromethoxy)phenyl][1,2,4]triazolo[1,5-c]quinazolin-5-yl}amino)-1,4-diazepan-5-one] | –
18 | 7.43e-09 M | 2.52 nM | CCCNC(=O)[C@@H](C)Nc1nc2c(Br)cccc2c2nc(-c3ccc(Cl)cc3OC(F)(F)F)nn12 [Example 693, N^2-{7-bromo-2-[4-chloro-2-(trifluoromethoxy)phenyl][1,2,4]triazolo[1,5-c]quinazolin-5-yl}-N-propyl-D-alaninamide] | –
19 | 6.22e-09 M | 1.19 nM | CC[C@@H](Nc1nc2ccccc2c2nc(-c3ccc(Br)cc3OC(F)(F)F)nn12)C(N)=O [Example 697, (2R)-2-({2-[4-bromo-2-(trifluoromethoxy)phenyl][1,2,4]triazolo[1,5-c]quinazolin-5-yl}amino)butanamide] | –
20 | 4.84e-09 M | 1.8 nM | O=C1NCCNC[C@H]1Nc1nc2c(C(F)(F)F)cccc2c2nc(-c3ccc(Cl)cc3OC(F)(F)F)nn12 [Example 710, (6R)-6-({2-[4-chloro-2-(trifluoromethoxy)phenyl]-7-(trifluoromethyl)[1,2,4]triazolo[1,5-c]quinazolin-5-yl}amino)-1,4-diazepan-5-one] | –
21 | 2.47e-09 M | 10.6 nM | COc1ccc(-c2nc3c4cccc(C#N)c4nc(N[C@@H]4CCCCNC4=O)n3n2)cc1 [Example 721, 2-(4-methoxyphenyl)-5-{[(3R)-2-oxoazepan-3-yl]amino}[1,2,4]triazolo[1,5-c]quinazoline-7-carbonitrile] | –
22 | 9.83e-10 M | 1.47 nM | COc1ccc(-c2nc3c4cccc(Br)c4nc(N[C@@H]4COCCNC4=O)n3n2)cc1 [Example 699, (6R)-6-{[7-bromo-2-(4-methoxyphenyl)[1,2,4]triazolo[1,5-c]quinazolin-5-yl]amino}-1,4-oxazepan-5-one] | –
